The assay has as its target T1, human CaSR (Homo sapiens, UniProt P41180).
T1 construct: expressed in transfected cells; host or cells: 293E cells (EBNA1-expressing HEK293, ATCC No. CRL-10852), transient transfection of hCaSR/pcDNA3.1
T1 sequence (P41180 20-1078): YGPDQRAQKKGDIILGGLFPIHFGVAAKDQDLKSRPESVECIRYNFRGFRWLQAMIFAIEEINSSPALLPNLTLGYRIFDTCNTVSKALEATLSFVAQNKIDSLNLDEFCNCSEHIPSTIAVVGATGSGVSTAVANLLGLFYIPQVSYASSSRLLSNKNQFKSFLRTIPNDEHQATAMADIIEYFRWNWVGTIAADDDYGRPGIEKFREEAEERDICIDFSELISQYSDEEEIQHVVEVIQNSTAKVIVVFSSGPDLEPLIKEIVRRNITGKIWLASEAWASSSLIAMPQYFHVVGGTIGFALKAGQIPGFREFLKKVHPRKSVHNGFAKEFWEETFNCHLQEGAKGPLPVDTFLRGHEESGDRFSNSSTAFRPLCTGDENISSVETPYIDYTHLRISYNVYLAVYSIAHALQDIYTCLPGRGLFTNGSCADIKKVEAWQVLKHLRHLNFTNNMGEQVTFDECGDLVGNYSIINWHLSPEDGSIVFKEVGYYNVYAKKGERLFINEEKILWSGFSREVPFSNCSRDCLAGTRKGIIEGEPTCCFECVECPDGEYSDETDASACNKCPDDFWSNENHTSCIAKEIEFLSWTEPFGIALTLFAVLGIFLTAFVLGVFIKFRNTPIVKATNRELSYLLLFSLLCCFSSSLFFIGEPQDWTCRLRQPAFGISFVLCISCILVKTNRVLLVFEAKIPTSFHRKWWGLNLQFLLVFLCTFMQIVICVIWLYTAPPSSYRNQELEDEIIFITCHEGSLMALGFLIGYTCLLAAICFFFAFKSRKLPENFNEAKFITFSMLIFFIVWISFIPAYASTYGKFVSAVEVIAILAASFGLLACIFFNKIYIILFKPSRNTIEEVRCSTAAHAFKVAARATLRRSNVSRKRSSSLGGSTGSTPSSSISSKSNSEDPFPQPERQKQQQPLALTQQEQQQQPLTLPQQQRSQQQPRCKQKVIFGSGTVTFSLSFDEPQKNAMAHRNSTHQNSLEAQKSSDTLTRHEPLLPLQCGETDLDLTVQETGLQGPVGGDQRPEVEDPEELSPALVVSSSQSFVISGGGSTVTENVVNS
The assay is described as follows: Assessment of CaSR agonistic activity (Ca2+ fluorescence, FLIPR, hCaSR-transfected 293E cells). The settings on record: human CaSR-expressing 293E cells, 1.5 mM CaCl2 assay buffer, 3-minute change in fluorescence intensity. Format: cell-based. The procedure:
CaSR gene was prepared according to the method described in Example 1 of WO07/55393. The resulting recombinant plasmid was used to generate human CaSR-expressing plasmid hCaSR/pcDNA3.1.
293E cells (EBNA1-expressing IIEK293 cells, ATCC No. CRL-10852) were cultured in DMEM ([…] Glucose-containing Dulbecco's modified Eagle medium, Nacalai Tesque) containing 10% bovine fetal serum in the presence of 250 μg/ml of G418. The cells were seeded on a 10 cm-diameter petri dish at 1.8×10^6 cells/15 ml, and left to stand in a CO2 incubator (5% CO2, 37° C.) for 24 hours. Thereafter, human CaSR expression plasmid hCaSR/pcDNA3.1 was transfected with transfection reagent Mirus Trans IT 293 (Takara Bio). Following static culture in a CO2 incubator for 24 hours, the cells were harvested with 10% bovine fetal serum-containing DMEM and seeded on a poly-D-lysine coat 384 well plate (Falcon) at 15,000 cells/well. Following static culture in a CO2 incubator for 24 hours, the medium was removed and the resultant was added with 50 μl/well of Ca^2+ fluorescent indicator Calcium 4 Assay Kit (Molecular Devices) dissolved in an assay buffer (146 mM NaCl, 5 mM KCl, 1 mM MgSO4, 1 mg/ml Glucose, 20 mM HEPES (PH 7.2), 1.5 mM CaCl2), and left to stand at 37° C. for an hour and then at room temperature for 30 minutes to allow intake of the indicator. The above-mentioned 384-well plate was transferred to FLIPR (Molecular Devices) and added with 12.5 μl/well of a compound dissolved in a 0.1% BSA-containing assay buffer to measure 3-minute change in the fluorescence intensity.
The difference between maximum and minimum fluorescence intensities before and after compound addition (RFU (Max−Min)) was determined by FLIPR automatic calculation. An activity rate was calculated where RFU (Max−Min) upon addition of a compound at a maximum concentration was defined 100% and RFU (Max−Min) upon addition of DMSO as a substitute for the compound at the same concentration was defined 0%. The rate was subjected to curve fitting using spreadsheet software Xfit to determine EC50 value, i.e., a compound concentration upon 50% activity rate.

Experimental findings from patent US9150505B2, “Prophylactic or therapeutic agent for diabetes or obesity” (AJINOMOTO CO., INC., priority 2010, dated 2015) are described below.

One may read the EC50 as the concentration at which the effect is half-maximal. A low value points to higher potency in that assay. With `N[C@@H](CNC(=O)Nc1cc(Cl)cc(S(=O)(=O)O)c1O)C(=O)O` [Example 6, (2S)-2-amino-3-{[(5-chloro-2-hydroxy-3-sulfophenyl)carbamoyl]amino}propanoic acid], the EC50 amounted to 3 nM.
